Source: PMC11211671, “Phage‐displayed heptapeptide sequence conjugation significantly improves the specific targeting ability of antimicrobial peptides against Staphylococcus aureus” (mLife, 2024)
Converted amounts (≈) assume the structure as drawn. Peptide text beside a SMILES is read from it.

How the values were obtained:
S. aureus 1882 = type: cell-based, Staphylococcus aureus
Procedure: (§1) MICs were determined to evaluate the antimicrobial activities of the peptides. The bacteria were inoculated into Mueller‐Hinton broth (MHB) medium in advance and placed in a shaker at 37°C until the logarithmic growth phase. The optical density value at OD600 of the bacterial suspension was adjusted to 0.4, and then diluted 1000 times with sterile MHB medium. Subsequently, the peptides with concentrations of 0.25–128 μM were prepared using bovine serum albumin (BSA) solution (0.2% BSA and 0.01% acetic acid) as the solvent on a 96‐well plate. Different concentrations of peptides and bacterial liquids were mixed in equal volumes. MHB medium containing bacteria was used as a positive control. MHB medium without bacteria was used as a negative control. Then, the mixture of peptides and bacteria was cultured in an incubator at 37°C for 18–24 h. The optical density of each well was measured at 492 nm using a microplate reader. The lowest drug concentration corresponding to a culture mixture with an optical density of less than 0.1 is the MIC of the peptide. The assay was repeated three times in duplicate.

S. aureus 6538 = type: cell-based, Staphylococcus aureus
Procedure: as §1

S. epidermidis 12228 = type: cell-based, Staphylococcus epidermidis
Procedure: as §1

E. coli 25922 = type: cell-based, Escherichia coli
Procedure: as §1

E. coli K88 = type: cell-based, Escherichia coli; conditions: microbroth dilution, MHB, 37°C, 18–24 h, OD492 < 0.1; repeated three times in duplicate
Procedure: as §1

E. coli K99 = type: cell-based, Escherichia coli; conditions: microbroth dilution, MHB, 37°C, 18–24 h, OD492 < 0.1; repeated three times in duplicate
Procedure: as §1

P. aeruginosa 15442 = type: cell-based, Pseudomonas aeruginosa
Procedure: as §1

P. aeruginosa 27853 = type: cell-based, Pseudomonas aeruginosa
Procedure: as §1

red blood cells = type: cell-based, pig
Procedure: A series of parameters such as charge number, hydrophobicity, sequence length, and amphipathicity can affect the hemolytic activity of peptides against red blood cells. The minimal hemolytic concentration (MHC) refers to the minimum concentration that causes hemolysis of 10 % of red blood cells, and is often used to evaluate the hemolytic activity of the peptides. Except for SFK3, the percentage of hemolysis at 128 μM was below 5% for all peptides. Hemolysis of the erythrocytes occurred after incubation with Triton X‐100, with complete fragmentation of the erythrocytes and a bright red color of the reaction system (Figure 2B,C and Table S5).
The hemolytic activity of the peptide was calculated by measuring the level of […] released from mammalian red blood cell lysis induced by the peptide, [44]. Fresh porcine blood was collected from the jugular vein and washed with PBS three times, and red blood cells were collected. A red blood cell suspension of 10% (v/v) concentration was prepared in 10 mM PBS (pH = 7.4). After mixing with different concentrations of peptides in equal volume, they were incubated at 37°C for 2 h. Red blood cells treated with PBS and 0.1% Triton X‐100 were used as negative and positive controls, respectively. The assay was repeated three times. After the sample was centrifuged, the supernatant was transferred to a new 96‐well plate, and the optical density at 570 nm was measured using a microplate reader. Hemolysis was calculated as follows: Hemolytic activity(%)=ODtest sample−ODnegative control/ODpositive control−ODnegative control×100%

S. aureus ATCC 6538 = type: cell-based, Staphylococcus aureus
Procedure: as §1
The assay was performed to analyze the salt ion stability of SFK2 by measuring changes in MIC values in different physiological salt concentrations, [46].

BALB/c mice [1] = assay: Biosafety evaluation, intraperitoneal injection; type: in vivo, mouse; conditions: i.p. 15 and 30 mg/kg once daily, 7 days, n = 6, except 15 mg/kg group for urea
Procedure: Eighteen male BALB/c mice (weighing approximately 30 g) were randomly divided into three groups (control, low‐dose, and high‐dose groups). Mice in the low‐ and high‐dose groups were intraperitoneally injected with 15 and 30 mg/kg polypeptide solutions, respectively, once daily. Mice in the control group were injected intraperitoneally with 150 µl of saline once daily. The experiment lasted for 7 days, and the changes in the body weight of the mice were recorded. After the seventh intraperitoneal injection for another 12 h, the mice were anesthetized with ether and euthanized. Blood was collected from the orbital vein, and serum was analyzed by biochemical analysis after centrifugation. The livers and kidneys of mice were collected and weighed. Afterward, the organs were fixed in a 4% paraformaldehyde solution and stained with H&E for analysis.

BALB/c mice [2] = assay: Biosafety evaluation, tail vein injection; type: in vivo, mouse; conditions: tail vein 5 mg/kg once daily, 7 days, n = 6
Procedure: Twelve male BALB/c mice (weighing approximately 20 g) were randomly divided into two groups (control and peptide‐treated groups). Mice in the peptide‐treated group were injected intravenously into the tail vein with 5 mg/kg peptide solution once daily. In the control group, mice were injected once daily with saline via the tail vein. The experiment was continued for 7 days, and changes in body weight were recorded. Mice were anesthetized with ether and euthanized 12 h after the seventh tail vein injection. Blood was collected from the orbital vein and centrifuged, and the serum was analyzed biochemically. The livers and kidneys of mice were collected and weighed. The organs were then fixed in a 4% paraformaldehyde solution and analyzed by H&E staining.

With `CC[C@H](C)[C@H](NC(=O)[C@H](CCCNC(=N)N)NC(=O)[C@H](CO)NC(=O)[C@H](CC(C)C)NC(=O)[C@H](Cc1ccccc1)NC(=O)[C@H](Cc1ccccc1)NC(=O)[C@H](Cc1ccccc1)NC(=O)CNC(=O)CNC(=O)CNC(=O)[C@H](CO)NC(=O)[C@H](C)NC(=O)[C@H](CCCNC(=N)N)NC(=O)[C@@H](NC(=O)[C@H](Cc1c[nH]c2ccccc12)NC(=O)[C@H](Cc1ccc(O)cc1)NC(=O)[C@@H](N)CO)C(C)C)C(=O)N[C@@H](Cc1ccccc1)C(=O)N[C@@H](CCCCN)C(=O)N[C@@H](CCCCN)C(N)=O` [SFK2] (H-SYWVRASGGGFFFLSRIFKK-NH2) the “MIC S. aureus 1882” value (S. aureus 1882) was 2 µM (≈ 4.71 µg/mL), the “MIC S. aureus 6538” value (S. aureus 6538) was 2 µM (≈ 4.71 µg/mL) and the “MIC S. epidermidis 12228” value (S. epidermidis 12228) was >64 µM. The “MIC E. coli 25922” value (E. coli 25922) was >64 µM, the “MIC E. coli K88” value (E. coli K88) was >64 µM and the “MIC E. coli K99” value (E. coli K99) was >64 µM. For the same molecule, the “MIC P. aeruginosa 15442” value (P. aeruginosa 15442) was >64 µM, the “MIC P. aeruginosa 27853” value (P. aeruginosa 27853) was >64 µM and the MHC (red blood cells) was “>128 μM”. For the same molecule, the “MIC of SFK2 against S. aureus ATCC 6538, Control” value (S. aureus ATCC 6538) was 2 µM, the “MIC of SFK2 against S. aureus ATCC 6538, FeCl3” value (S. aureus ATCC 6538) was 4 µM and the “MIC of SFK2 against S. aureus ATCC 6538, KCl” value (S. aureus ATCC 6538) was 4 µM. The “MIC of SFK2 against S. aureus ATCC 6538, MgCl2” value (S. aureus ATCC 6538) was 4 µM, the “MIC of SFK2 against S. aureus ATCC 6538, NH4Cl” value (S. aureus ATCC 6538) was 4 µM and the “MIC of SFK2 against S. aureus ATCC 6538, NaCl” value (S. aureus ATCC 6538) was 4 µM. The “MIC of SFK2 against S. aureus ATCC 6538, ZnCl2” value (S. aureus ATCC 6538) was 2 µM, the “Relative organ indices and liver- and kidney function-related indices (Crea, urea, AST, ALT, TBIL, ALP)” value (BALB/c mice [1]) was “no significant differences” and the “Toxic side effects after tail vein injection” value (BALB/c mice [2]) was “negligible toxic side effects”.
